The record followed here is patent publication US4180436A, “Antibacterial compounds and process for production thereof” (Kyowa Hakko Kogyo Co., Ltd., priority 1977, dated 1979).

Converted amounts (≈) assume the structure as drawn. “Also recorded” adds a separate entry of the source.

One data set concerns Diplococcus pneumoniae. Briefly: antibacterial activity by disc method. The class given is cell-based. The conditions noted are these: Streptococcus pneumoniae, pH: no adjustment. The source says: (§1) The antibacterial activity of the compound S551-II against various microorganisms by disc method (pH: no adjustment) is shown in the following Table 1.
Data set [1] deals with Chaetomium globosum ATCC 6025. Briefly: antibacterial activity by disc method. Type of data set: cell-based. The conditions noted are these: ATCC6025, pH: no adjustment.
From the text: as §1

The test system of a further data set is Saccharomyces rouxii M-9. Put plainly: antibacterial activity by disc method. The class given is cell-based. The settings on record: Zygosaccharomyces rouxii, M9, pH: no adjustment.
From the text: as §1

In data set [2] the test system is Aspergillus oryzae NRRL 692. Put plainly: antibacterial activity by disc method. The class given is cell-based. The settings on record: NRRL692, pH: no adjustment.
From the text: as §1

In data set [3] the test system is Proteus vulgaris HX19 IAM 1025. Put plainly: antibacterial activity by disc method. The class given is cell-based. The settings on record: IAM1025, pH: no adjustment.
From the text: as §1

In another data set the test system is Irycoderma T-1 ATCC 9645. Briefly: antibacterial activity by disc method. The class given is cell-based.
From the text: as §1

In data set [4] the test system is Escherichia coli ATCC 3655. Put plainly: antibacterial activity by disc method. Type of data set: cell-based. The settings on record: ATCC3655, pH: no adjustment.
From the text: as §1

Data set [5] has as its system Trycophyton mentagrophytes IAM 5064. Put plainly: antibacterial activity by disc method. The class given is cell-based. The settings on record: pH: no adjustment.
From the text: as §1

The subject of another data set is Bacillus subtilis NA 64. Put plainly: antibacterial activity by disc method. The class given is cell-based. The conditions noted are these: NA64, pH: no adjustment.
From the text: as §1

Data set [6] relates to Myrothecium verrucaria IAM 5063. Briefly: antibacterial activity by disc method. Type of data set: cell-based. The settings on record: Albifimbria verrucaria, IAM5063, pH: no adjustment.
From the text: as §1

Data set [7] deals with Aspergillus niger IAM 2026. Briefly: antibacterial activity by disc method. Type of data set: cell-based. The settings on record: IAM2026, pH: no adjustment.
From the text: as §1

Data set [8] concerns Cladosporium herbarum Link Fr IAM 5059. Put plainly: antibacterial activity by disc method. The settings on record: IAM5059, pH: no adjustment. Type of data set: cell-based.
From the text: as §1

The subject of data set [9] is Alternaria solani IFO 5924. Put plainly: antibacterial activity by disc method. Type of data set: cell-based. The settings on record: IFO5924, pH: no adjustment.
From the text: as §1

The next data set has as its system Sarcina lutea IAM 1099. Put plainly: antibacterial activity by disc method. The class given is cell-based. The conditions noted are these: Micrococcus luteus, IAM1099, pH: no adjustment.
From the text: as §1

Data set [10] deals with Mucor spinescens IAM 6071. Briefly: antibacterial activity by disc method. The settings on record: IAM6071, pH: no adjustment. The class given is cell-based.
From the text: as §1

In data set [11] the test system is Candida albicans IAM 4888. Briefly: antibacterial activity by disc method. Type of data set: cell-based. The conditions noted are these: IAM4888, pH: no adjustment.
From the text: as §1

Data set [12] deals with Bacillus subtilis PCI 219. Put plainly: antibacterial activity by disc method. The settings on record: PCI219, pH: no adjustment. Type of data set: cell-based.
From the text: as §1

Data set [13] has as its system Staphylococcus aureus FAD 209P. Briefly: antibacterial activity by disc method. The settings on record: pH: no adjustment. The class given is cell-based.
From the text: as §1

Data set [14] concerns Pseudomonas aeruginosa IAM 1156. Put plainly: antibacterial activity by disc method. The class given is cell-based. The settings on record: IAM1156, pH: no adjustment.
From the text: as §1

The subject of data set [15] is Aspergillus niger ATCC 6275. Put plainly: antibacterial activity by disc method. Type of data set: cell-based. The conditions noted are these: ATCC6275, pH: no adjustment.
From the text: as §1

Data set [16] has as its system Penicillium chrysogenum IAM 7142. Put plainly: antibacterial activity by disc method. The class given is cell-based. The settings on record: IAM7142, pH: no adjustment.
From the text: as §1

Data set [17] deals with Klebsiella pneumoniae 348. Put plainly: antibacterial activity by disc method. The settings on record: pH: no adjustment. The class given is cell-based.
From the text: as §1

The test system of data set [18] is Saccharomyces cerevisiae IAM 4485. Put plainly: antibacterial activity by disc method. The class given is cell-based. The conditions noted are these: IAM4485, pH: no adjustment.
From the text: as §1

The next data set relates to gypseum IFO 5948. Put plainly: antibacterial activity by disc method. The settings on record: pH: no adjustment. The class given is cell-based.
From the text: as §1

The test system of a further data set is Shigella sonnei E23. Briefly: antibacterial activity by disc method. The class given is cell-based.
From the text: as §1

For data set [19], the system named is Serratia marcescens IAM 1022. Put plainly: antibacterial activity by disc method. Type of data set: cell-based. The settings on record: IAM1022, pH: no adjustment.
From the text: as §1

A further data set concerns Salmonella enteritidis. Put plainly: antibacterial activity by disc method. Type of data set: cell-based. The settings on record: Salmonella enterica, pH: no adjustment.
From the text: as §1

For data set [20], the system named is Penicillium chrysogenum Q 176. Briefly: antibacterial activity by disc method. The class given is cell-based. The settings on record: Q176, pH: no adjustment.
From the text: as §1

The test system of data set [21] is Dusariium moniliforme IAM 5062. Put plainly: antibacterial activity by disc method. The class given is cell-based. The settings on record: pH: no adjustment.
From the text: as §1

Data set [22] deals with Pseudomonas fluorescens ATCC 27. Put plainly: antibacterial activity by disc method. The conditions noted are these: ATCC27, pH: no adjustment. Type of data set: cell-based.
From the text: as §1

In data set [23] the test system is Bacillus subtilis IAM 1026. Briefly: antibacterial activity by disc method. Type of data set: cell-based. The conditions noted are these: IAM1026, pH: no adjustment.
From the text: as §1

Data set [24] has as its system Escherichia coli IAM 1268. Put plainly: antibacterial activity by disc method. The class given is cell-based. The conditions noted are these: IAM1268, pH: no adjustment.
From the text: as §1

For data set [25], the system named is Staphylococcus aureus ATCC 6538P. Briefly: antibacterial activity by agar dilution method. Type of data set: cell-based. The conditions noted are these: ATCC6538P, pH 7.0. The source says:
(§2) The antibacterial activity of the compound S551-II-A against various microorganism by agar dilution method (pH 7.0) is shown in Table 2.

For data set [26], the system named is Proteus vulgaris ATCC 6897. Briefly: antibacterial activity by agar dilution method. Type of data set: cell-based. The conditions noted are these: ATCC6897, pH 7.0.
From the text: as §2

The test system of data set [27] is Klebsiella pneumoniae ATCC 10031. Briefly: antibacterial activity by agar dilution method. Type of data set: cell-based. The settings on record: ATCC10031, pH 7.0.
From the text: as §2

In data set [28] the test system is Escherichia coli ATCC 3655. Briefly: antibacterial activity by agar dilution method. The conditions noted are these: ATCC3655, pH 7.0. Type of data set: cell-based.
From the text: as §2

In data set [29] the test system is Bacilus subtilis ATCC 10707. Briefly: antibacterial activity by agar dilution method. The class given is cell-based. The settings on record: pH 7.0.
From the text: as §2

Another data set in a line: Solubilities. The class given is physicochemical. The conditions noted are these: solvents named in the value.

Turning to `CC(=O)OC1CC(/C=C/C(=O)OC2=C(O)CCC2=O)=CN1` (centres unmarked) [Compound S551-II], the minimum inhibitory concentration (MIC) against Diplococcus pneumoniae was 1000 µg/mL (≈ 3410 µM); in data set [1] it was 500 µg/mL (≈ 1700 µM); with Saccharomyces rouxii M-9, 100 µg/mL (≈ 341 µM); in [2], 62.5 µg/mL (≈ 213 µM); in data set [3], above 1000 µg/mL; with Irycoderma T-1 ATCC 9645, 16 µg/mL (≈ 54.6 µM). The MIC amounted to 500 µg/mL (≈ 1700 µM) in data set [4]; 4 µg/mL (≈ 13.6 µM) in [5]; 62.5 µg/mL (≈ 213 µM) against Bacillus subtilis NA 64; 125 µg/mL (≈ 426 µM) in data set [6]; 250 µg/mL (≈ 852 µM) in data set [7]; 31.2 µg/mL (≈ 106 µM) in [8]. Also, the MIC in [9] is 8 µg/mL (≈ 27.3 µM); in the data set with Sarcina lutea IAM 1099, 125 µg/mL (≈ 426 µM); in data set [10], 500 µg/mL (≈ 1700 µM); in data set [11] it was above 1000 µg/mL; in [12] it was 62.5 µg/mL (≈ 213 µM); in [13] it was 62.5 µg/mL (≈ 213 µM). For the same compound, the minimum inhibitory concentration (MIC) in data set [14] was above 1000 µg/mL; in data set [15] it was 1000 µg/mL (≈ 3410 µM); in [16], 125 µg/mL (≈ 426 µM); in data set [17] it was above 1000 µg/mL; in data set [18], 1000 µg/mL (≈ 3410 µM); against gypseum IFO 5948, 125 µg/mL (≈ 426 µM). For the same compound, the MIC against Shigella sonnei E23 is above 100 µg/mL; in data set [19] it was above 1000 µg/mL; against Salmonella enteritidis, above 1000 µg/mL; in data set [20], 62.5 µg/mL (≈ 213 µM); in data set [21], 125 µg/mL (≈ 426 µM); in [22], above 1000 µg/mL. Moreover, the minimum inhibitory concentration (MIC) was 31.2 µg/mL (≈ 106 µM) in [23] and 1000 µg/mL (≈ 3410 µM) in data set [24].
As to `O=C(/C=C/c1cc[nH]c1)OC1=C(O)CCC1=O` [Compound S551-II-A], the minimal inhibitory concentration (MIC) stood at 200 µg/mL (≈ 858 µM) in data set [25]; 25 µg/mL (≈ 107 µM) in data set [26]; 200 µg/mL (≈ 858 µM) in data set [27]; 500 µg/mL (≈ 2140 µM) in [28]; 200 µg/mL (≈ 858 µM) in data set [29]. Further, in the data set “Solubilities”, the Solubilities result is “soluble in acetone, dimethylsulfoxide and alkaline solution; also recorded: slightly soluble in methanol; also recorded: insoluble in benzene, chloroform ethylether and hexane”.
